Test results taken from ChEMBL document CHEMBL1201862, “PubChem BioAssay data set” (2004).
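Exposure lasted 48 hours, with cells grown in 96-well plates and compounds tested at five concentrations. GI50: concentration for 50% inhibition of growth.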 Activity calls are given as the source filed them. No stated cut-off is given here; in the data, active = GI50 up to about 1.1 µM and inactive = higher.

Tests used:
Assay in all cases: NCI tumour cell line growth inhibition, 48 h
[1] = test system: A498
[2] = test system: A549
[3] = test system: BT-549
[4] = test system: CCRF-CEM
[5] = test system: EKVX
[6] = test system: HOP-92
[7] = test system: IGROV-1
[8] = test system: KM12
[9] = test system: LOX IMVI
[10] = test system: M14
[11] = test system: MDA-MB-231
[12] = test system: MOLT-4
[13] = test system: Malme-3M
[14] = test system: NCI-H460
[15] = test system: SN12C
[16] = test system: U-251
[17] = test system: UACC-62
[18] = test system: UO-31
[19] = test system: K562

Measured: GI50

CC(=O)N(C(C)=O)n1nc2c(n1)C(=O)c1ccccc1C2=O
inactive: [1] > 100 µM | [2] > 100 µM | [3] > 100 µM | [4] > 100 µM | [5] > 100 µM | [6] > 100 µM | [7] > 100 µM | [8] > 100 µM | [9] > 100 µM | [10] > 100 µM | [11] > 100 µM | [12] > 100 µM | [13] 68.1 µM | [14] > 100 µM | [15] > 100 µM | [16] > 100 µM | [17] > 100 µM | [18] > 100 µM

NC(=O)NNCc1ccccc1
inactive: [1] > 100 µM | [2] > 100 µM | [3] > 100 µM | [4] > 100 µM | [5] > 100 µM | [6] 51.5 µM | [7] > 100 µM | [19] > 100 µM | [8] > 100 µM | [9] > 100 µM | [10] > 100 µM | [11] > 100 µM | [12] > 100 µM | [14] > 100 µM | [15] > 100 µM | [16] > 100 µM | [17] > 100 µM | [18] > 100 µM

CC(=O)CC1=C(OC(C)C)C2(OCCO2)C1O (configuration not stated)
inactive: [1] > 100 µM | [2] > 100 µM | [3] > 100 µM | [4] > 100 µM | [5] > 100 µM | [6] > 100 µM | [7] > 100 µM | [8] > 100 µM | [9] > 100 µM | [10] > 100 µM | [11] > 100 µM | [12] > 100 µM | [13] > 100 µM | [14] > 100 µM | [15] > 100 µM | [16] > 100 µM | [17] > 100 µM | [18] > 100 µM

NC1CCCCC1.O=P(O)(O)C(O)/C=C/c1ccccc1 (configuration not stated)
inactive: [1] > 100 µM | [2] > 100 µM | [3] > 100 µM | [5] > 100 µM | [6] > 100 µM | [7] > 100 µM | [19] > 100 µM | [8] > 100 µM | [9] > 100 µM | [10] > 100 µM | [11] > 100 µM | [12] > 100 µM | [13] > 100 µM | [14] > 100 µM | [15] > 100 µM | [16] > 100 µM | [17] > 100 µM | [18] > 100 µM

Brc1ccc2c(c1)-c1nc3nc4c(cc3cc1CC2)CCc1ccc(Br)cc1-4
inactive: [1] > 100 µM | [2] > 100 µM | [3] > 100 µM | [5] > 100 µM | [6] > 100 µM | [7] > 100 µM | [19] > 100 µM | [8] 62.7 µM | [9] > 100 µM | [10] > 100 µM | [11] > 100 µM | [12] > 100 µM | [13] > 100 µM | [14] > 100 µM | [15] > 100 µM | [16] > 100 µM | [18] > 100 µM

C=C(C)CC1(O)C(=O)C(OCC)=C1OCC (configuration not stated)
inactive: [1] > 100 µM | [2] > 100 µM | [3] > 100 µM | [4] > 100 µM | [5] > 100 µM | [6] 48.6 µM | [7] > 100 µM | [8] > 100 µM | [9] > 100 µM | [10] > 100 µM | [11] > 100 µM | [12] > 100 µM | [13] 48.1 µM | [14] > 100 µM | [15] > 100 µM | [16] > 100 µM | [17] > 100 µM | [18] > 100 µM
